Non-standard residues stand in square brackets, D forms with d. Residues, ends and D or L forms follow the SMILES beside them. Groups on a side chain read outwards from the residue. *: point of attachment. C18 diacid = O=C(O)CCCCCCCCCCCCCCCCC(=O)*; PEG2 = NCCOCCOCCC(=O)O; Aib = CC(C)(N)C(=O)O
Biological target: T1, human GLP-1R (Homo sapiens, UniProt P43220)
T1 construct: expressed in transfected cells
Assay: In vitro activity on GLP-1R, CRE-luciferase HEK-293 cells
Assay type: cell-based
Conditions: ratio of EC50 GLP-1R to EC50 GCGR
Method: 5000 of HEK-293 cells, which are used in CRE-luciferase system and express human GCGR or GLP-1R stably, were inoculated into 384 well plates according to […] DMEM/10% FBS media/well. […] After incubation, […] of luciferase reagent was added directly to each plate and mixed gently for 2 minutes. The plates were placed into an Elmer Perkin plate reader for reading. Concentration curve of the compound was made by drawing software Prism 5, and the EC50 value was calculated.

T1 sequence (P43220 24-463): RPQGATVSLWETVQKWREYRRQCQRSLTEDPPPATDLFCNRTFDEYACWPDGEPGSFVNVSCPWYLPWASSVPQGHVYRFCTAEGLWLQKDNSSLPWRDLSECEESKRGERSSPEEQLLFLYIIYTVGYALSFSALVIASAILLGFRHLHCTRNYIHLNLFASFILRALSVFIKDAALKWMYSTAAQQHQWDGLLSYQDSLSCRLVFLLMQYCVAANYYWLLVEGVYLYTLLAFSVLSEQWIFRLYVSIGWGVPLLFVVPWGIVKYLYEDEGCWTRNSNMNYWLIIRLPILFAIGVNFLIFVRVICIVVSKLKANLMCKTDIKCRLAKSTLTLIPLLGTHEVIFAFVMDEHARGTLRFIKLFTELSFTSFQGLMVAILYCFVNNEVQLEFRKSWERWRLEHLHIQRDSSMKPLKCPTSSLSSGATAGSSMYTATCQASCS

Structure (SMILES) | GLP-1R/GCGR
CSCC[C@H](NC(=O)[C@H](CC(C)C)NC(=O)[C@H](Cc1c[nH]c2ccccc12)NC(=O)[C@H](CCC(N)=O)NC(=O)[C@@H](NC(=O)[C@H](Cc1ccccc1)NC(=O)[C@H](CC(=O)O)NC(=O)[C@H](CCC(N)=O)NC(=O)[C@H](C)NC(=O)[C@H](CCCNC(=N)N)NC(=O)[C@H](CCCNC(=N)N)NC(=O)C(C)(C)NC(=O)[C@H](CC(=O)O)NC(=O)[C@H](CC(C)C)NC(=O)[C@H](CCCCN)NC(=O)[C@H](CCCCNC(=O)CCOCCOCCNC(=O)CCOCCOCCNC(=O)CCCCCCCCCCCCCCCCC(=O)O)NC(=O)[C@H](CO)NC(=O)[C@H](Cc1ccc(O)cc1)NC(=O)[C@H](CC(=O)O)NC(=O)[C@H](CO)NC(=O)[C@@H](NC(=O)[C@H](Cc1ccccc1)NC(=O)[C@@H](NC(=O)CNC(=O)[C@H](CCC(N)=O)NC(=O)[C@@H](CO)NC(=O)[C@@H](N)Cc1c[nH]cn1)[C@@H](C)O)[C@@H](C)O)C(C)C)C(=O)N[C@@H](CC(N)=O)C(=O)N[C@H](C(=O)NCC(=O)NCC(=O)N1CCC[C@H]1C(=O)N[C@@H](CO)C(=O)N[C@@H](CO)C(=O)NCC(=O)N[C@@H](C)C(=O)N1CCC[C@H]1C(=O)N1CCC[C@H]1C(=O)N1CCC[C@H]1C(=O)N[C@@H](CO)C(N)=O)[C@@H](C)O [Compound 16] | 3
CSCC[C@H](NC(=O)[C@H](CC(C)C)NC(=O)[C@H](Cc1c[nH]c2ccccc12)NC(=O)[C@H](CCC(N)=O)NC(=O)[C@@H](NC(=O)[C@H](Cc1ccccc1)NC(=O)[C@H](CC(=O)O)NC(=O)[C@H](CCC(N)=O)NC(=O)[C@H](C)NC(=O)[C@H](CCCNC(=N)N)NC(=O)[C@H](CCCCNC(=O)CCOCCOCCNC(=O)CCOCCOCCNC(=O)CCCCCCCCCCCCCCCCC(=O)O)NC(=O)C(C)(C)NC(=O)[C@H](CC(=O)O)NC(=O)[C@H](CC(C)C)NC(=O)[C@H](Cc1ccc(O)cc1)NC(=O)[C@H](CCCCN)NC(=O)[C@H](CO)NC(=O)[C@H](Cc1ccc(O)cc1)NC(=O)[C@H](CC(=O)O)NC(=O)[C@H](CO)NC(=O)[C@@H](NC(=O)[C@H](Cc1ccccc1)NC(=O)[C@@H](NC(=O)CNC(=O)[C@H](CCC(N)=O)NC(=O)[C@@H](CO)NC(=O)[C@@H](N)Cc1c[nH]cn1)[C@@H](C)O)[C@@H](C)O)C(C)C)C(=O)N[C@@H](CC(N)=O)C(=O)N[C@H](C(=O)NCC(=O)NCC(=O)N1CCC[C@H]1C(=O)N[C@@H](CO)C(=O)N[C@@H](CO)C(=O)NCC(=O)N[C@@H](C)C(=O)N1CCC[C@H]1C(=O)N1CCC[C@H]1C(=O)N1CCC[C@H]1C(=O)N[C@@H](CO)C(N)=O)[C@@H](C)O [Compound 12] (H-H[dS]QGTFTSDYSKYLD[Aib]K([PEG2-PEG2-C18 diacid])RAQDFVQWLMNTGGPSSGAPPPS-NH2; N-terminus assumed) | 2.1
CC(C)C[C@H](NC(=O)[C@H](CC(C)C)NC(=O)[C@H](Cc1c[nH]c2ccccc12)NC(=O)[C@H](CCC(=O)O)NC(=O)[C@@H](NC(=O)[C@H](Cc1ccccc1)NC(=O)[C@H](CC(=O)O)NC(=O)[C@H](Cc1c[nH]cn1)NC(=O)[C@H](C)NC(=O)[C@H](C)NC(=O)[C@H](CCCCNC(=O)CCOCCOCCNC(=O)CCOCCOCCNC(=O)CC[C@H](NC(=O)CCCCCCCCCCCCCCCCC(=O)O)C(=O)O)NC(=O)[C@H](CO)NC(=O)[C@H](CC(=O)O)NC(=O)[C@H](CC(C)C)NC(=O)[C@H](Cc1ccc(O)cc1)NC(=O)[C@H](CCCCN)NC(=O)[C@H](CO)NC(=O)[C@H](Cc1ccc(O)cc1)NC(=O)[C@H](CC(=O)O)NC(=O)[C@H](CO)NC(=O)[C@@H](NC(=O)[C@H](Cc1ccccc1)NC(=O)[C@@H](NC(=O)CNC(=O)[C@H](CCC(N)=O)NC(=O)[C@@H](CO)NC(=O)[C@@H](N)Cc1c[nH]cn1)[C@@H](C)O)[C@@H](C)O)C(C)C)C(=O)N[C@@H](CCCNC(=N)N)C(=O)N[C@@H](C)C(N)=O [Compound 1] | 0.4
CCCCCCCCCCCCCCCC(=O)NCCOCCOCCC(=O)NCCOCCOCCC(=O)NCCCC[C@H](NC(=O)[C@H](CO)NC(=O)[C@H](Cc1ccc(O)cc1)NC(=O)[C@H](CC(=O)O)NC(=O)[C@H](CO)NC(=O)[C@@H](NC(=O)[C@H](Cc1ccccc1)NC(=O)[C@@H](NC(=O)CNC(=O)[C@H](CCC(N)=O)NC(=O)[C@@H](CO)NC(=O)[C@@H](N)Cc1c[nH]cn1)[C@@H](C)O)[C@@H](C)O)C(=O)N[C@@H](CCCCN)C(=O)N[C@@H](CC(C)C)C(=O)N[C@@H](CC(=O)O)C(=O)NC(C)(C)C(=O)N[C@@H](CCCNC(=N)N)C(=O)N[C@@H](CCCNC(=N)N)C(=O)N[C@@H](C)C(=O)N[C@@H](CCC(N)=O)C(=O)N[C@@H](CC(=O)O)C(=O)N[C@@H](Cc1ccccc1)C(=O)N[C@H](C(=O)N[C@@H](CCC(N)=O)C(=O)N[C@@H](Cc1c[nH]c2ccccc12)C(=O)N[C@@H](CC(C)C)C(=O)N[C@@H](CCSC)C(=O)N[C@@H](CC(N)=O)C(=O)N[C@H](C(=O)NCC(=O)NCC(=O)N1CCC[C@H]1C(=O)N[C@@H](CO)C(=O)N[C@@H](CO)C(=O)NCC(=O)N[C@@H](C)C(=O)N1CCC[C@H]1C(=O)N1CCC[C@H]1C(=O)N1CCC[C@H]1C(=O)N[C@@H](CO)C(N)=O)[C@@H](C)O)C(C)C [Compound 15] | 2.5
CCCCCCCCCCCCCCCC(=O)N[C@@H](CCC(=O)NCCOCCOCCC(=O)NCCOCCOCCC(=O)NCCCC[C@H](NC(=O)[C@H](CC(=O)O)NC(=O)[C@H](CC(C)C)NC(=O)[C@H](Cc1ccc(O)cc1)NC(=O)[C@H](CCCCN)NC(=O)[C@H](CO)NC(=O)[C@H](Cc1ccc(O)cc1)NC(=O)[C@H](CC(=O)O)NC(=O)[C@H](CO)NC(=O)[C@@H](NC(=O)[C@H](Cc1ccccc1)NC(=O)[C@@H](NC(=O)CNC(=O)[C@H](CCC(N)=O)NC(=O)[C@@H](CO)NC(=O)[C@@H](N)Cc1c[nH]cn1)[C@@H](C)O)[C@@H](C)O)C(=O)N[C@@H](CCCNC(=N)N)C(=O)N[C@@H](CCCNC(=N)N)C(=O)N[C@@H](C)C(=O)N[C@@H](CCC(N)=O)C(=O)N[C@@H](CC(=O)O)C(=O)N[C@@H](Cc1ccccc1)C(=O)N[C@H](C(=O)N[C@@H](CCC(N)=O)C(=O)N[C@@H](Cc1c[nH]c2ccccc12)C(=O)N[C@@H](CC(C)C)C(=O)N[C@@H](CCSC)C(=O)N[C@@H](CC(N)=O)C(=O)N[C@H](C(=O)NCC(=O)NCC(=O)N1CCC[C@H]1C(=O)N[C@@H](CO)C(=O)N[C@@H](CO)C(=O)NCC(=O)N[C@@H](C)C(=O)N1CCC[C@H]1C(=O)N1CCC[C@H]1C(=O)N1CCC[C@H]1C(=O)N[C@@H](CO)C(N)=O)[C@@H](C)O)C(C)C)C(=O)O [Compound 10] | 3.3
CC(C)C[C@H](NC(=O)[C@H](CC(C)C)NC(=O)[C@H](Cc1c[nH]c2ccccc12)NC(=O)[C@H](CCC(=O)O)NC(=O)[C@@H](NC(=O)[C@H](Cc1ccccc1)NC(=O)[C@H](CC(=O)O)NC(=O)[C@H](Cc1c[nH]cn1)NC(=O)[C@H](C)NC(=O)[C@H](C)NC(=O)[C@H](CCCCNC(=O)CCOCCOCCNC(=O)CCOCCOCCNC(=O)CC[C@H](NC(=O)CCCCCCCCCCCCCCCCC(=O)O)C(=O)O)NC(=O)[C@H](CO)NC(=O)[C@H](CC(=O)O)NC(=O)[C@H](CC(C)C)NC(=O)[C@H](Cc1ccc(O)cc1)NC(=O)[C@H](CCCCN)NC(=O)[C@H](CO)NC(=O)[C@H](Cc1ccc(O)cc1)NC(=O)[C@H](CC(=O)O)NC(=O)[C@H](CO)NC(=O)[C@@H](NC(=O)[C@H](Cc1ccccc1)NC(=O)[C@@H](NC(=O)CNC(=O)[C@H](CCC(N)=O)NC(=O)[C@@H](CO)NC(=O)[C@@H](N)Cc1c[nH]cn1)[C@@H](C)O)[C@@H](C)O)C(C)C)C(=O)N[C@@H](CC(N)=O)C(=O)NCC(=O)NCC(=O)N1CCC[C@H]1C(=O)N[C@@H](CO)C(=O)N[C@@H](CO)C(=O)NCC(=O)N[C@@H](C)C(=O)N1CCC[C@H]1C(=O)N1CCC[C@H]1C(=O)N1CCC[C@H]1C(=O)N[C@@H](CO)C(N)=O [Compound 3] | 0.6
CSCC[C@H](NC(=O)[C@H](CC(C)C)NC(=O)[C@H](Cc1c[nH]c2ccccc12)NC(=O)[C@H](CCC(N)=O)NC(=O)[C@@H](NC(=O)[C@H](Cc1ccccc1)NC(=O)[C@H](CC(=O)O)NC(=O)[C@H](CCC(N)=O)NC(=O)[C@H](C)NC(=O)[C@H](CCCNC(=N)N)NC(=O)[C@H](CCCCNC(=O)CCOCCOCCNC(=O)CCOCCOCCNC(=O)CC[C@H](NC(=O)CCCCCCCCCCCCCCCCC(=O)O)C(=O)O)NC(=O)C(C)(C)NC(=O)[C@H](CC(=O)O)NC(=O)[C@H](CC(C)C)NC(=O)[C@H](Cc1ccc(O)cc1)NC(=O)[C@H](CCCCN)NC(=O)[C@H](CO)NC(=O)[C@H](Cc1ccc(O)cc1)NC(=O)[C@H](CC(=O)O)NC(=O)[C@H](CO)NC(=O)[C@@H](NC(=O)[C@H](Cc1ccccc1)NC(=O)[C@@H](NC(=O)CNC(=O)[C@H](CCC(N)=O)NC(=O)[C@@H](CO)NC(=O)[C@@H](N)Cc1c[nH]cn1)[C@@H](C)O)[C@@H](C)O)C(C)C)C(=O)N[C@@H](CC(N)=O)C(=O)N[C@H](C(=O)NCC(=O)NCC(=O)N1CCC[C@H]1C(=O)N[C@@H](CO)C(=O)N[C@@H](CO)C(=O)NCC(=O)N[C@@H](C)C(=O)N1CCC[C@H]1C(=O)N1CCC[C@H]1C(=O)N1CCC[C@H]1C(=O)N[C@@H](CO)C(N)=O)[C@@H](C)O [Compound 14] | 2.1
CCCCCCCCCCCCCCCC(=O)N[C@@H](CCC(=O)NCCOCCOCCC(=O)NCCOCCOCCC(=O)NCCCC[C@H](NC(=O)C(C)(C)NC(=O)[C@H](CC(=O)O)NC(=O)[C@H](CC(C)C)NC(=O)[C@H](Cc1ccc(O)cc1)NC(=O)[C@H](CCCCN)NC(=O)[C@H](CO)NC(=O)[C@H](Cc1ccc(O)cc1)NC(=O)[C@H](CC(=O)O)NC(=O)[C@H](CO)NC(=O)[C@@H](NC(=O)[C@H](Cc1ccccc1)NC(=O)[C@@H](NC(=O)CNC(=O)[C@H](CCC(N)=O)NC(=O)[C@@H](CO)NC(=O)[C@@H](N)Cc1c[nH]cn1)[C@@H](C)O)[C@@H](C)O)C(=O)N[C@@H](CCCNC(=N)N)C(=O)N[C@@H](C)C(=O)N[C@@H](CCC(N)=O)C(=O)N[C@@H](CC(=O)O)C(=O)N[C@@H](Cc1ccccc1)C(=O)N[C@H](C(=O)N[C@@H](CCC(N)=O)C(=O)N[C@@H](Cc1c[nH]c2ccccc12)C(=O)N[C@@H](CC(C)C)C(=O)N[C@@H](CCSC)C(=O)N[C@@H](CC(N)=O)C(=O)N[C@H](C(=O)NCC(=O)NCC(=O)N1CCC[C@H]1C(=O)N[C@@H](CO)C(=O)N[C@@H](CO)C(=O)NCC(=O)N[C@@H](C)C(=O)N1CCC[C@H]1C(=O)N1CCC[C@H]1C(=O)N1CCC[C@H]1C(=O)N[C@@H](CO)C(N)=O)[C@@H](C)O)C(C)C)C(=O)O [Compound 13] | 2.8
